Data from patent US10046050B2, “Targeting immunotherapy for amyloidosis” (UNIVERSITY OF TENNESSEE RESEARCH FOUNDATION, priority 2014, dated 2018).

What was measured:
[1] = system: ^125I-7D8; test: Pulldown assay with peptope-coated polystyrene beads; format: binding; settings: peptope conjugated to polystyrene beads; ˜0.065 nM ^125I-7D8
Method: The 7D8 antibody (15 μg) was radiolabeled with 0.5 mCi of reductant-free iodine-125 (^125I, Perkin Elmer) using limiting amounts of chloramine T (10 μg) and suspended in PBS containing 0.1% gelatin as carrier protein. Unbound radioisotope and protein aggregates were removed from the preparation by size-exclusion liquid chromatography using an Ultrogel AcA34 solid phase (Amersham Pharmacia). Fractions containing ^125I-7D8 were pooled for pull-down assays. The relative radiopurity of the preparation was assessed by SDS/PAGE (4-12% acrylamide; Novex) followed by imaging using a phosphor-imager (Cyclone).
Pulldown assays were performed using ^125I-7D8 using, as a substrate, peptope-conjugated to polystyrene beads, synthetic fibrils (Aβ[1-40] or IAPP) or human ATTR amyloid extracts (transthyretin-associated amyloid [ATTR] was previously isolated from the organs of three different patients with Appalachian mutation—Thr60Ala). […] The sample was mixed end over end for 1 h at room temperature, and the bound and free ^125I-7D8 were then separated by serial centrifugations at 16,000×g and the percent bound calculated immunoreactivity=[boundcpm/(boundcpm+freecpm)]×100 Pulldown assays using synthetic fibrils and amyloid extracts were performed essentially as described herein. […]

[2] = system: RAW 264.7 murine macrophages; test: Phagocytosis assay of pHrodo green-labeled human ATTR extract; format: cell-based; settings: 80 min
Method: The phagocytosis of human cardiac ATTR extract induced by peptope and 7D8 was studied using a pH-sensitive fluorescence enhancement assay. The RAW 264.7 murine macrophages (1×10^6 cells per well) were plated into the wells of a 12-well culture dish, containing a glass coverslip, and incubated at 37° C. overnight. On the day of the experiment, 10 μg of pHrodo green-labeled human ATTR extract was mixed with 4 μg of p75 peptide or, as a negative control, an equal volume of PBS (pHrodo green [Thermofisher, Molecular Probes] is a pH sensitive dye that is only fluorescent at pH 4, i.e. in a acidified macrophage endosome/lysosome). The sample was incubated for 30 min. Unbound p75 peptide was removed by washing twice, by centrifugation at 10,000×g using PBS. The 7D8 and MOPC mAb solutions (MOPC served as a negative isotype control) were centrifuged at 10,000×g to remove particulates before adding 10 μg to the peptide-coated ATTR extract. The samples were incubated for 1 h before being washed by centrifugation as above, before being added to the wells of the microplate. The cells were incubated with the amyloid extract for 80 min, at which time Hoescht dye (Thermofisher) was added to the well (to stain the cell nuclei blue), and the mixture incubated for a further 10 min. The coverslips were then washed and mounted on a slide for epifluorescent microscopy and digital image acquisition using blue (nuclei) and green (phagocytosed amyloid) fluorescent filters. Images (original magnification 160×) were analyzed digitally and the area of green fluorescence per cell (“phagocytosis index”) was calculated using 3 or 4 digital images acquired from each coverslip. Approximately 2000 cells were analyzed for each sample.

## KAQKAQAKQAKQAQKAQKAQAKQAKQAQHEDT [p75, KAQKAQAKQAKQAQKAQKAQAKQAKQAQHEDT]
[1]
  percent of added ^125I-7D8 bound: 62.3%
[2]
  phagocytosis index (area of green fluorescence per cell), 25% Percentile: 0.5842
  phagocytosis index (area of green fluorescence per cell), 75% Percentile: 2.603
  phagocytosis index (area of green fluorescence per cell), Maximum: 2.603
  phagocytosis index (area of green fluorescence per cell), Mean: 1.367
  phagocytosis index (area of green fluorescence per cell), Median: 0.9137
  phagocytosis index (area of green fluorescence per cell), Minimum: 0.5842
